Data: patent US7071231B2, “Naphthalene ureas as glucose uptake enhancers” (Telik, Inc., priority 1999, dated 2006)

How the values were obtained:
[1] = Distribution of compound-[14C]-15 after oral administration; format: in vivo, rat; settings: STZ/HFD rats, single oral dose 30 mg/kg 14C-labeled, two hours later
Description: Distribution of Compound-[14C]-15 After Oral Administration
STZ/HFD rats, prepared as in Example 19, were given a single oral dose of 30 mg/kg compound-[14C]-15 labeled with 50 μCi of 14C prepared as in Example 11A. Two hours later the animals were euthanized and 200 mg samples of various tissues were removed by an IACUC-approved protocol. The tissue samples were homogenized and their radioactivity content was measured by scintillation counting. The highest levels of radioactivity were found in the pancreas, liver, and thigh muscle. These corresponded to Compound 15 concentrations of approximately 780 nM, 200 nM, and 175 nM, respectively. These concentrations would be sufficient to produce insulin receptor phosphorylation in vitro. Lower levels of radioactivity indicative of 50 nM to 100 nM concentrations of the compound were found in abdominal muscle, fat, kidney, and spleen.

STZ/HFD rat = assay: Blood glucose determination in the STZ/HFD rat model of Type 2 diabetes; format: in vivo; settings: STZ/HFD rat
Description: Blood Glucose Determination in the STZ/HFD Rat Model of Type 2 Diabetes
Representative compounds were also profiled in genetically normal rats given a high-fat diet followed by treatment with a low dose of streptozotocin (STZ/HFD). This treatment regimen recreates both the insulin resistance and the hyperglycemia seen in human Type 2 diabetes. Male CD rats (Jackson Labs, Bar Harbor Me.) were maintained according to NIH guidelines, housed two per cage, and fed either standard lab chow (Tekland Laboratory Diets, James Grain, San Jose, Calif.) or the same chow supplemented with chocolate bars, cookies, and potato chips such that their final diet contained 30% fat by weight (high-fat diet; HFD). After two weeks of this diet, the animals were given an injection of freshly-prepared streptozotocin (35 mg/kg, i.p.) and continued on the HFD. Animals that achieved glucose levels of 190 to 380 mg/dl were used in this study. At the end of the 12-hour light/dark cycle, and just prior to the experiment, the animals were moved to new cages with no food available until 4 hours after treatment. The compound or vehicle (PBS) was given p.o. by gavage, and blood was sampled by approved IACUC protocol using tail cap method. Glucose was determined using the Glucometer Elite (Bayer, Elkhart, Ind.).
The reduction was maximal (20%) 4 hours after the administration of Compound 15.

CYP2D6 = CYP2D6 (Homo sapiens, UniProt P10635); assay: P450 interactions: CYP2D6 inhibition; format: in vitro ADME; settings: human cytochromes P450
Sequence of CYP2D6 (P10635 whole entry): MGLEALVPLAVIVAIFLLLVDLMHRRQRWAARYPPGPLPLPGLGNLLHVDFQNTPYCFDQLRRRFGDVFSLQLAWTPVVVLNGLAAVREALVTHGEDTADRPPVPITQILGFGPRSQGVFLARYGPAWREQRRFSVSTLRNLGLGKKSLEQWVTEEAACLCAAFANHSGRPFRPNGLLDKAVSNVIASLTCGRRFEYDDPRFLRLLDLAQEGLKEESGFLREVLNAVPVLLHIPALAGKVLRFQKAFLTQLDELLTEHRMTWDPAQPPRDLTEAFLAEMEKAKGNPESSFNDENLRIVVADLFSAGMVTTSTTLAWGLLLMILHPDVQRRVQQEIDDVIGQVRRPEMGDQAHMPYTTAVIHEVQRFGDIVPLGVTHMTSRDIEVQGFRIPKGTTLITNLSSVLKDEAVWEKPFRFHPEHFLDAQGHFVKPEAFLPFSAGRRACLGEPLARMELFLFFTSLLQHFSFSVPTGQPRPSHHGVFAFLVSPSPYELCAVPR
Description: (§1) A major pathway for elimination of drugs from the body, which may limit their effectiveness, is the cytochrome P450 system of the liver.

EGFR = target: T1, EGFR (Homo sapiens, UniProt P00533); assay: Selectivity: EGFR phosphorylation in A431 cells; format: cell-based; settings: in the presence or absence of EGF (2.5 ng/ml)
T1 construct: endogenous in cells; host or cells: A431
T1 sequence (P00533 25-1210): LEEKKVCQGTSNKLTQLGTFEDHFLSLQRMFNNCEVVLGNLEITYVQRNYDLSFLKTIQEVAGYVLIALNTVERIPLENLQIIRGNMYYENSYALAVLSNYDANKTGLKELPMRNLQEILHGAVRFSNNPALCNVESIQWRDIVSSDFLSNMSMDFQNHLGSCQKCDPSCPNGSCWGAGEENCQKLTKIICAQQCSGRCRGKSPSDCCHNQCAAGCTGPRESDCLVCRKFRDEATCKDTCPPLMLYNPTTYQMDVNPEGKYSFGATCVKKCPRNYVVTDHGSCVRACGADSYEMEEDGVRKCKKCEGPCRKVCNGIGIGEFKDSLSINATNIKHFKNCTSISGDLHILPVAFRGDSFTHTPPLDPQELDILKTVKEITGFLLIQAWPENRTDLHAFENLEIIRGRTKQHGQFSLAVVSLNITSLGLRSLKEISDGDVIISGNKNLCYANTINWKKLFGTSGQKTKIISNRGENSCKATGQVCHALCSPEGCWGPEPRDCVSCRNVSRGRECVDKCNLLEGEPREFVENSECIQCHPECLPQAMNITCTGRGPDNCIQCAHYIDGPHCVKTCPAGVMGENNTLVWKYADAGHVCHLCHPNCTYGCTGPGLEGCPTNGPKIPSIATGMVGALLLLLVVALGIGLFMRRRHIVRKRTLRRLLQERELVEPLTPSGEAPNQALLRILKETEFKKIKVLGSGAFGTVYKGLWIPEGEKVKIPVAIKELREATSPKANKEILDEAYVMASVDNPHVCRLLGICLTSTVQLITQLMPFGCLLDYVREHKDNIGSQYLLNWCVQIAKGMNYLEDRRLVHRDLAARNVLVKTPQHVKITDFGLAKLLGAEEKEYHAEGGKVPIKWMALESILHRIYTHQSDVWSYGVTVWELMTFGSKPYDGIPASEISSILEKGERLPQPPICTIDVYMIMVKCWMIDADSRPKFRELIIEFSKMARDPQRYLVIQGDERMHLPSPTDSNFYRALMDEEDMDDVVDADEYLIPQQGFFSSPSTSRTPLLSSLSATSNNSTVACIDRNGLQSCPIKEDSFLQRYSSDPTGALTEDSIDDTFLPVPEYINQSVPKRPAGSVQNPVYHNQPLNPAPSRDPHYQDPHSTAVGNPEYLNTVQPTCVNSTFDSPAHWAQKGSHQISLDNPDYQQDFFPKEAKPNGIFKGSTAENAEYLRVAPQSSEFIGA
Description: Selectivity vs. EGFR, PDGFR and IGFR
In order to determine the selectivity of these compounds for the insulin receptor, their effects on other receptors that share a similar mechanism of activation with the insulin receptor were examined. Human epidermoid carcinoma (A431) cells were plated at a density of 2×10^5 cells per well in 6-well dishes in DMEM with 10% FBS and L-Glutamine and allowed to grow to 75% confluence. Prior to the experiment, the cells were serum-starved overnight with DMEM with 0.1% BSA. The following morning, the cells were washed with PBS and the medium was replaced with 150 mM NaCl, 1.7 mM KCl, 0.9 mM CaCl2, K2HPO4 (pH 7.4), to which was added either the experimental compound or its vehicle (DMSO). Epidermal Growth Factor (EGF) or its vehicle (0.01% BSA) was diluted in the assay buffer (containing test compound or vehicle respectively) to a final concentration of 2.5 ng/ml. After incubating for 15 min, the cells were washed with cold PBS twice and lysed in 50 mM Tris.HCl pH 7.4, 150 mM NaCl, 0.25% sodium deoxycholate, 1% NP40, 1 mM EGTA, 1 mM PMSF, 1 mM Na3VO4, 1 mM NaF, 1 ug/ml each of Aprotinin, Leupeptin and Pepstatin. The cell lysates were clarified by centrifugation at 12000 rpm, and the supernatants were estimated for protein concentration. […]

CYP2C9 = CYP2C9 (Homo sapiens, UniProt P11712); assay: P450 interactions: CYP2C9 inhibition; format: in vitro ADME; settings: human cytochromes P450
Sequence of CYP2C9 (P11712 whole entry): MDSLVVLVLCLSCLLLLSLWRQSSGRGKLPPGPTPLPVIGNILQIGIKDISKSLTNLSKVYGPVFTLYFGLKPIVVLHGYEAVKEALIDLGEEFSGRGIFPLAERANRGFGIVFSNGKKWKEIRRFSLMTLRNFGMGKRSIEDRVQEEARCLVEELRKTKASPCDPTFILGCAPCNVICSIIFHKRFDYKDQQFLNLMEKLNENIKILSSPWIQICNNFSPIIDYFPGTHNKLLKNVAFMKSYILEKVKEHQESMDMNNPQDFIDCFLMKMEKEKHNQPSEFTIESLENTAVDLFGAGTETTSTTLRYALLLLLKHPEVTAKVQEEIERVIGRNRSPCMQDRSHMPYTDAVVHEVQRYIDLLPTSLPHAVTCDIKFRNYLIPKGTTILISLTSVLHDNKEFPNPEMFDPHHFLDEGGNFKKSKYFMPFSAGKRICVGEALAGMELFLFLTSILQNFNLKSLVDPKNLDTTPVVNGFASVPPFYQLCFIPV
Description: as §1

[2] = target: insulin-like growth factor type 1 (IGF-1) receptor (Homo sapiens, UniProt P08069); assay: Selectivity: IGF-1 receptor phosphorylation; format: cell-based; settings: in the absence or presence of IGF-1
Sequence of insulin-like growth factor type 1 (IGF-1) receptor (P08069 741-1367 limits assumed): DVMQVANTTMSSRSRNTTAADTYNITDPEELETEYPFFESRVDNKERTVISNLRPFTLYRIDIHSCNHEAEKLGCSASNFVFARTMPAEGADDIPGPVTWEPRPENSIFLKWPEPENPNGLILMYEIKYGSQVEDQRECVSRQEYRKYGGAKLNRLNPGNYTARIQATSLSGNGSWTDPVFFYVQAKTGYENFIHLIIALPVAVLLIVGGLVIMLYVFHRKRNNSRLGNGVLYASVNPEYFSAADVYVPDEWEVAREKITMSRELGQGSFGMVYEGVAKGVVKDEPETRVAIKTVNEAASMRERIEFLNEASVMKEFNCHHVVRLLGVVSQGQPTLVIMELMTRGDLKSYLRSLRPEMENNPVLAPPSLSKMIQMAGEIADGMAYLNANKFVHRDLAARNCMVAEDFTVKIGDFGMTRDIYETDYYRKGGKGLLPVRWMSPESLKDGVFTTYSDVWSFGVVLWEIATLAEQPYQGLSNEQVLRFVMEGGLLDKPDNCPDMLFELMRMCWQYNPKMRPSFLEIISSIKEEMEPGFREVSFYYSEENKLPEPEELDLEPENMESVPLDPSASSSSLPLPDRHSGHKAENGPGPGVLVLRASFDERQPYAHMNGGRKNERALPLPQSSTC
Sequence of insulin-like growth factor type 1 (IGF-1) receptor (P08069 31-736 partner limits assumed): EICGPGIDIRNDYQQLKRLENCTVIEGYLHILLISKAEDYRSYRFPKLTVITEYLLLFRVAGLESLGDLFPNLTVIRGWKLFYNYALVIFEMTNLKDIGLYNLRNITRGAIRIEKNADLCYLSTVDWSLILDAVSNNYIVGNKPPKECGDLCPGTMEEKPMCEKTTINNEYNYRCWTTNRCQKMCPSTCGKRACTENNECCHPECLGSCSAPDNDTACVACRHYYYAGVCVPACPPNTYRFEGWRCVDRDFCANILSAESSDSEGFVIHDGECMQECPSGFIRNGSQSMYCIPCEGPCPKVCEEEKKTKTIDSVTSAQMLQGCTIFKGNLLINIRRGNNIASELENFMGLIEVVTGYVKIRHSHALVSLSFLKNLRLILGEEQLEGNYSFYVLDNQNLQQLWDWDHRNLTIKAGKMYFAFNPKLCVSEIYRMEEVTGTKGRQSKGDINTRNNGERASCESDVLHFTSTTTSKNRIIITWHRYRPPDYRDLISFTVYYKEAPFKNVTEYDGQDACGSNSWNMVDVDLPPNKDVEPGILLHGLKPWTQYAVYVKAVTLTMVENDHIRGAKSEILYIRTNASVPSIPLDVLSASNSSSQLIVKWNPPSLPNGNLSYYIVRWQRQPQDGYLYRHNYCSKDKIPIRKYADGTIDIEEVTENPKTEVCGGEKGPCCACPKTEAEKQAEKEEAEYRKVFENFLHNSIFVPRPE

male CD rats = assay: Acute toxicity in CD rats; format: in vivo; settings: p.o., 300 mg/kg in PBS
Description: Compound 15 was administered in PBS vehicle to male db/db mice (i.p.) and male CD rats (p.o.) at 300 mg/kg, which is approximately 10 times its effective dose.

Q: Which results are given for O=C(Nc1ccc2c(O)cc(S(=O)(=O)Nc3cccc(S(=O)(=O)O)c3)cc2c1)Nc1ccc2c(O)cc(S(=O)(=O)Nc3cccc(S(=O)(=O)O)c3)cc2c1 [Compound 15, 3-{[(4-hydroxy-7-{[N-(5-hydroxy-7-{[(3-sulfophenyl)amino]sulfonyl}(2-naphthyl))carbamoyl]amino}-2-naphthyl)sulfonyl]amino}benzenesulfonic acid]?
A: amount of radioactivity in the blood [1]: not above background levels; tissue concentration, liver [1]: ~200 nM; tissue concentration, pancreas [1]: approximately 780 nM; tissue concentration, thigh muscle [1]: ~175 nM; maximal reduction in blood glucose levels (STZ/HFD rat; p.o. by gavage (FIG. 11)): 20%; time of maximal reduction in blood glucose after administration (STZ/HFD rat; p.o. by gavage (FIG. 11)): 4 h; onset and duration of reduction in blood glucose levels (STZ/HFD rat; p.o. by gavage, 6 hour experiment (FIG. 11)): beginning one hour after administration and persisting for the entire 6 hours of the experiment; inhibition of catalytic activity of CYP2D6 (CYP2D6): did not inhibit; phosphorylation of EGFR (EGFR): did not increase the phosphorylation of EGFR; inhibition of catalytic activity of CYP2C9 (CYP2C9): did not inhibit; phosphorylation of the IGF-1 receptor [2]: not to increase the phosphorylation; acute toxicity (male CD rats): No acute toxicity was seen
